Laboratory results published in article PMC12566971, “Polyprenylated Acylphloroglucinols from Hypericum rochelii and Hypericum olympicum—Cytotoxic Effects on Non-Tumorigenic Cell Lines and Antibacterial Potential” (Pharmaceuticals, 2025).

Experiments:
CCL-1 cell line = assay: Live-cell imaging with Hoechst for apoptosis detection; format: cell-based; settings: positive control, 5 to 72 h
Protocol: Cell suspension was seeded in the same manner as for MTT, but 50 µL per well in 96-well clear bottom plates. […] For the hypertonic buffer, the exposure time was 2 h, and the cells were plated at twice the concentration as for the MTT and cytopathic tests in order to comply with the kit protocol.
At least two wells were seeded as replicates, and at least two photographs were taken for all samples and treatments, stained with dyes or not.

breast cancer cell line = tested on: breast cancer cell line; set-up: method as in PMID 26865836; settings: 24 h, ref [93]; cited from earlier work
unspecified fibroblasts = settings: up to 30 μg/mL for 24 h, ref [93]; cited from earlier work
HT-22 and SH-SY5Y cells = settings: concentration where viability was restored to about 75%, ref [103]; read-out: Effective concentration 50 (EC50), neuroprotection; cited from earlier work
[1] = tested on: panel of cancer cell lines; set-up: method as in PMID 39454890; settings: ref [48]; read-out: IC50 against a panel of cancer cell lines; cited from earlier work
Staphylococcus aureus [2] = settings: ref [4],[29]; cited from earlier work
Streptococcus pyogenes [3] = assay: MIC and MBC evaluation (broth microdilution, agar plate assay); format: cell-based; settings: for MBC/MIC ratio, S. pyogenes: bactericidal if ≤ 4, bacteriostatic if > 4
Protocol: (§1) The MIC and MBC assessment on the pathogenic bacteria and the candidate probiotic lactic acid bacteria was carried out by the broth microdilution assay (BMD) and the agar plate assay, respectively, as described in [4]. The metabolic (dehydrogenase) activity of the lactic acid bacteria was assessed as described in [4].
(§2) P. aeruginosa PAO1 ATCC 15692 was purchased from the American Type Cell Culture Collection (ATCC, Manassas, VA, USA). S. mutans DSM 20523 was bought from the German Collection of Microorganisms and Cell Cultures (DSMZ GmbH, Braunschweig, Germany). All other bacteria and strains were purchased as described in [4].

Enterococcus faecalis [4] = assay: as above; format: cell-based; settings: for MBC/MIC ratio, E. faecalis: bactericidal if ≤ 4, bacteriostatic if > 4
Protocol: as §1, §2

[5] = tested on: Pseudomonas aeruginosa PAO1; assay: as above; format: cell-based
Protocol: as §1, §2

Staphylococcus aureus [6] = assay: as above; format: cell-based
Protocol: as §1, §2

HaCaT = assay: MTT assay for cytotoxicity; format: cell-based, human
Protocol: (§3) The MTT assay was performed according to Annex C, ISO 10993-5 [56] as in [116]. The panel of non-tumorigenic cell lines consisted of one murine (CCL-1 fibroblasts, which are recommended as a standard for cytotoxicity evaluation in Annex C of ISO 10993-5 [56]) and four human cell lines—HaCaT (immortalized epidermal keratinocytes), HGF (gingival fibroblasts), HEK-293 (embryonic cells from kidney epithelium), and HEPG2 (hepatoblastoma). Although technically a cancer cell line, HEPG2 is non-tumorigenic and retains many hepatocyte-related features in its proteome and a high degree of morphological and functional differentiation, also being a stage one hepatoblastoma.
(§4) CCL-1 was purchased from ATCC and HaCaT and HGF were bought from CLS Cell Lines Service (GmbH, Eppelheim, Germany). HEK-293 and HEPG2 were obtained from DSMZ. The cell culture medium for HaCaT and HEPG2 was Dulbecco’s Modified Eagle Medium (DMEM) with 4.5 g/L glucose (DMEM-HA). For HGF it was DMEM/F-12 (DMEM-12-A, a 1:1 mixture of DMEM and Ham’s F-12 medium). The cell medium for CCL-1 and HEK-293 was Eagle’s Minimum Essential Medium (MEM) (MEM-A). Ten percent heat-inactivated fetal bovine serum (FBS) was added to all media but to the one for the CCL-1 cells, to which 10% heat-inactivated horse serum was added. All media were supplemented with 2 mM L-glutamine and Penicillin/Streptomycin (Pen/Strep, 100×). The cell culture media, sera, and additives were from Capricorn Scientific (Düsseldorf, Germany).
(§5) GraphPad Prism software version 9 (GraphPad Software Inc., San Diego, CA, USA) was used to calculate the IC50 values from the MTT assays as in [116], as well as the MTC values, and the ELISA standard curves. The MTC values are, according to ISO 10993-5, the maximum concentration at which at least 70% of the cells are viable (nonlin fit, range).

HEPG2 = assay: MTT assay for cytotoxicity; format: cell-based, human
Protocol: as §3, §4, §5

Enterococcus faecalis [7] = settings: ref [4],[29]; cited from earlier work
CCL-1 = assay: MTT assay for cytotoxicity; format: cell-based, murine
Protocol: as §3, §4, §5

[8] = tested on: Methicillin-Resistant S. aureus (MRSA); assay: MIC and MBC evaluation (broth microdilution, agar plate assay); format: cell-based, Staphylococcus aureus
Protocol: as §1, §2

[9] = tested on: Human embryonic kidney-293 (HEK-293); assay: MTT assay for cytotoxicity; format: cell-based
Protocol: as §3, §4, §5

[10] = tested on: Human gingival fibroblasts (HGF); assay: MTT assay for cytotoxicity; format: cell-based
Protocol: as §3, §4, §5

[11] = tested on: Methicillin-Resistant S. aureus (MRSA); settings: ref [4],[29]; cited from earlier work
Streptococcus pyogenes [12] = settings: ref [4],[29]; cited from earlier work
Streptococcus mutans = assay: MIC and MBC evaluation (broth microdilution, agar plate assay); format: cell-based
Protocol: as §1, §2

[13] = bactericidal if ≤ 4, bacteriostatic if > 4

COc1cccc2c1C(=O)c1c(O)c3c(c(O)c1C2=O)C[C@@](O)(C(C)=O)C[C@@H]3O[C@H]1C[C@H](N)[C@H](O)[C@H](C)O1 [daunorubicin, reference compound]
Highly condensed and shrunken nuclei (marker of apoptosis) (CCL-1 cell line): not in samples treated with daunorubicin

Cc1cc(O)c2c(=O)c3c(O)cc(O)c4c5c(O)cc(O)c6c(=O)c7c(O)cc(C)c8c1c2c(c34)c(c78)c65 [hypericin]
IC50 for a breast cancer cell line (breast cancer cell line): 5 µg/mL | Effect on cell survival of fibroblasts (unspecified fibroblasts): did not have a significant effect

c1cc2c(cc1[C@H]1OC[C@H]3[C@@H]1CO[C@@H]3c1ccc3c(c1)OCO3)OCO2 [sesamine]
EC50 (HT-22 and SH-SY5Y cells): 2.85 µM

Cerastioside A
IC50 [1]: 107 to 198 µM

Olympiforin A
MIC on bacteria, S. aureus (Staphylococcus aureus [2]): 0.78 µg/mL | MBC (Streptococcus pyogenes [3]): 1008 µM | MBC, Streptococcus pyogenes (Streptococcus pyogenes [3]): 500 µg/mL | MBC/MIC ratio, S. pyogenes (Streptococcus pyogenes [3]): 40 | MBC (Enterococcus faecalis [4]): 252 µM | MBC, Enterococcus faecalis (Enterococcus faecalis [4]): 125 µg/mL | MBC/MIC ratio, E. faecalis (Enterococcus faecalis [4]): 10 | MBC, Pseudomonas aeruginosa PAO1 [5]: 2713 µg/mL | MIC, Pseudomonas aeruginosa PAO1 [5]: 1356 µg/mL | Minimal bactericidal concentration (MBC), Staphylococcus aureus (Staphylococcus aureus [6]): 25 µg/mL | MBC/MIC ratio, S. aureus (Staphylococcus aureus [6]; [13]): 32 | MBC (Staphylococcus aureus [6]; read-out: Minimal bactericidal concentration (MBC), Staphylococcus aureus): 50 µM | Maximum tolerated concentration (MTC), HaCaT (HaCaT): 0.47 µg/mL | IC50, HaCaT (HaCaT; MTT assay): 1.33 µg/mL | IC50 (HaCaT; converted to µM): 2.68 µM | Maximum tolerated concentration (MTC), HEPG2 (HEPG2): 2.51 µg/mL | IC50, HEPG2 (HEPG2; MTT assay): 6.87 µg/mL | IC50 (HEPG2; converted to µM): 13.8 µM | MIC on bacteria, E. faecalis (Enterococcus faecalis [7]): 12.5 µg/mL | Maximum tolerated concentration (MTC), CCL-1 (CCL-1): 3.27 µg/mL | IC50, CCL-1 (CCL-1; MTT assay): 6.13 µg/mL | IC50 (CCL-1; converted to µM): 12.3 µM | MBC [8]: 171 µM | MBC, Methicillin-Resistant S. aureus (MRSA) [8]: 85 µg/mL | MBC/MIC ratio, MRSA [8, 13]: 7 | Maximum tolerated concentration (MTC), HEK-293 [9]: 0.41 µg/mL | IC50, HEK-293 ([9]; MTT assay): 0.69 µg/mL | IC50 ([9]; converted to µM): 1.39 µM | Maximum tolerated concentration (MTC), HGF [10]: 16.78 µg/mL | IC50, HGF ([10]; MTT assay): 19.44 µg/mL | IC50 ([10]; converted to µM): 39.1 µM | MIC on bacteria, MRSA [11]: 12.5 µg/mL | MIC on bacteria, S. pyogenes (Streptococcus pyogenes [12]): 12.5 µg/mL

Penicillin [reference compound]
MBC, Streptococcus pyogenes (Streptococcus pyogenes [3]): 0.25 µg/mL | MBC/MIC ratio, S. pyogenes (Streptococcus pyogenes [3]): 3 | MBC, Enterococcus faecalis (Enterococcus faecalis [4]): 20 µg/mL | MBC/MIC ratio, E. faecalis (Enterococcus faecalis [4]): 8 | MBC for S. mutans (Streptococcus mutans): 2 µg/mL | MIC for S. mutans (Streptococcus mutans): 0.03 µg/mL | MBC/MIC ratio, Streptococcus mutans (Streptococcus mutans; [13]): 66
